Measured values: US8968709B2, “Therapeutic dental composition and related methods” (3M Innovative Properties Company, priority 2007, dated 2015)
In brackets after ≈: the same amount, converted by molar mass. Where two headings read alike, the source gives them in different places.

What was measured:
Type in all cases: cell-based
[1] = tested on: Streptococcus mutans (ATCC 25175) biofilm; assay: Quantitative Biofilm Inhibition Test; conditions: average optical density at 550 nm as percentage of control; 1 weight percent compound, 1.0 weight percent sucrose in brain heart infusion broth, 37° C., approximately twenty hours, five discs
Procedure: Compounds of the dental compositions of the invention, and comparative compounds, were evaluated for biofilm inhibition activity. Composite dental restorative (available under the trade designation “FILTEK SUPREME” from 3M ESPE Dental Products, St. Paul, Minn.) was placed in a 15 millimeter by 1 millimeter stainless steel die. The open ends of the die were then covered with polyester film and the die was subjected to a pressure of 68.95 MPa using a hydraulic press. While the die containing the composite restorative was under compression, the composite was irradiated for two minutes using a Model ACE light source (available from SCHOTT North America, Inc., Auburn, N.Y.). The discs of cured composite restorative were then further cured using a Model UniXS light box (available from Heraeus Kulzer, Inc., Armonk, N.Y.) for 1.5 minutes.
The cured discs of composite restorative were then immersed in ten milliliters of Streptococcus mutans culture (ATCC 25175; 10^6 CFU/mL) prepared in brain heart infusion broth that contained 1.0 weight percent sucrose and 1 weight percent of a compound of the dental composition. The samples were incubated at 37° C. for approximately twenty hours, after which time the cured discs were removed from the broth and were gently rinsed with water. Each disc was placed in a separate test tube containing five milliliters of 1M aqueous sodium hydroxide solution, and each test tube was then sonicated for two minutes using a model SH1012-40-8 ultrasonic generator (manufactured by Branson Ultrasonics Corp., Danbury, Conn.) for two minutes to dislodge biofilm on the disc. The optical absorbance (optical density) of each aqueous sodium hydroxide solution was then measured at 550 nm using a Model ULTROSPEC III UV-visible spectrophotometer (manufactured by Pharmacia AB, Uppsala, Sweden). For each compound of the dental composition, five discs were separately incubated in broth and were evaluated separately to provide five optical density measurements. The average of the five optical density measurements was then calculated. […] The average optical density of the control or comparative samples was determined as described above. The ratio, expressed as a percentage, of the average optical density for each compound sample to the average optical density for a control sample was calculated by dividing the average optical density for each compound sample by the average optical density for a control sample and multiplying the result by one hundred. The ratio was considered to be proportional to the average amount of biofilm on the five cured discs, i.e., relatively low average optical density ratio was considered to be indicative of inhibition of biofilm formation. The ratio for the control was 100%.
(§1) The Biofilm Inhibition Test was carried out using compounds of the dental composition. […] In addition, a qualitative determination of biofilm formation was made for each Example and the Comparative Example in which each disc was visually examined before it was placed in the tube containing the aqueous sodium hydroxide solution.

[2] = tested on: Streptococcus mutans (ATCC 25175) biofilm; assay: Qualitative Biofilm Inhibition Test (visual examination of discs); design: key: +: a visual assessment that a compound inhibited biofilm formation; −: a visual assessment that either a compound did not inhibit biofilm formation, or that bacteria grew in the culture broth; conditions: visible biofilm on cured composite disc after incubation and water rinse; 1 weight percent compound, 1.0 weight percent sucrose
Procedure: as §1, with “During the procedure for the Quantitative Biofilm Inhibition Test, each cured disc was visually examined after it was removed from the broth (and rinsed with water) and before it was placed in a test tube containing five milliliters of 1M aqueous sodium hydroxide solution. The presence or absence of visible biofilm on a disc was noted. The” for “The”

[3] = tested on: Staphylococcus aureus (strain ATCC 6538); assay: Minimum Inhibitory Concentration (MIC) Test, S. aureus; conditions: tryptic soy broth, 37° C., 24 hours, "none" = no inhibitory activity detected
Procedure: (§2) The MIC Test was carried out using successively lower concentrations of compounds. Sterile tryptic soy broth (50 microliters; TSB, available from BD Dfico, Becton, Dickinson and Company, Franklin Lakes, N.J.) was deposited into each well of a sterile polystyrene 96-well microtiter plate. Into each well in the first (leftmost) column of the plate, there was then deposited a 50 microliter aliquot (of known concentration) of a compound (I.e., a compound of Formula I, or a pharmaceutically acceptable salt thereof, or comparative compound). A 50 microliter aliquot of the mixture in the first (leftmost) well in the first row of the plate was transferred to the second well in the first row. A 50 microliter aliquot of the mixture in the second well in the first row was then transferred to the third well in the first row. The compound was successively diluted (1:1 dilution at each step) by transferring a 50 microliter aliquot from one well into the next well, across the row of the plate. This procedure was repeated for each row of the plate. Then, an overnight culture of Streptococcus mutans (strain ATCC 25175) was diluted 1:100 into sterile tryptic soy broth. A 50 microliter aliquot of the diluted S. mutans culture (10^5 CFU) was deposited into each well of the microtiter plate. The plate was then incubated at 37° C. for 24 hours in a sealed humidified chamber. The plate was then visually inspected to determine the lowest concentration of compound at which no bacterial growth was visible. This value was considered to be the minimum inhibitory concentration (MTC) for the compound. The test was repeated using Staphylococcus aureus (strain ATCC 6538) and Pseudomonas aeruginosa (strain ATCC 9027) in place of S. mutans. A sample of each of the compounds of Formulae II, III, IV, V, and VI (0.050 g each) was dissolved in water (5 g). Each of the samples was evaluated using the Minimum Inhibitory Concentration (MIC) Test described above with S. mutans, S. aureus, and P. aeruginosa. In Table 3, “none” means that no inhibitory activity was detected.

[4] = tested on: Streptococcus mutans (strain ATCC 25175); assay: Minimum Inhibitory Concentration (MIC) Test, S. mutans; conditions: 37° C., 24 hours, "none" = no inhibitory activity detected
Procedure: as §2

[5] = tested on: Pseudomonas aeruginosa (strain ATCC 9027); assay: Minimum Inhibitory Concentration (MIC) Test, P. aeruginosa; conditions: 37° C., 24 hours, "none" = no inhibitory activity detected
Procedure: as §2

[6] = tested on: Streptococcus mutans (ATCC 25175) biofilm; assay: Biofilm Inhibition Test: concentration of compound to inhibit biofilm formation at varied sucrose
[7] = Streptococcus mutans, ATCC25175, tryptic soy broth, read-out: MIC

Compound | OD Ratio [1] | Visual Assessment [2] | MIC [3] | MIC ([4]; tryptic soy broth) | MIC ([5]; tryptic soy broth) | MIC [4, 7] | MIC ([5]; Pseudomonas aeruginosa, ATCC9027, tryptic soy broth, read-out: MIC) | Concentration of Compound to Inhibit Biofilm Formation ([6]; 1 wt % Sucrose) | Concentration of Compound to Inhibit Biofilm Formation ([6]; 2.5 wt % Sucrose) | Concentration of Compound to Inhibit Biofilm Formation ([6]; 5 wt % Sucrose)
NC[C@H](O)[C@@H](O)[C@H](O)[C@H](O)CO [D-Glucamine, D-glucamine] | 101.5% | + | none | none | none |  |  |  |  | 
CCCCCCCCCC(=O)N(C)C[C@H](O)[C@@H](O)[C@H](O)[C@H](O)CO [N-Methyl-N-decanoyl-D-glucamine, N-methyl-N-decanoyl-D-glucamine] | 0% | + | 2.50 |  |  | 1250 µg/mL (≈ 3.58 mM) | 2500 µg/mL (≈ 7.15 mM) |  |  | 
CCCCCCCCC(=O)N(C)C[C@H](O)[C@@H](O)[C@H](O)[C@H](O)CO [N-Methyl-N-nonanoyl-D-glucamine, N-methyl-N-nonanoyl-D-glucamine] | 0% | + | none |  | none | 2500 µg/mL (≈ 7.45 mM) |  |  |  | 
CNC[C@H](O)[C@@H](O)[C@H](O)[C@H](O)CO [N-Methyl-D-glucamine, N-methyl-D-glucamine] | 0% | + | none | none | none |  |  | 50 mM | 50 mM | 50 mM
CCCCCCCC(=O)N(C)C[C@H](O)[C@@H](O)[C@H](O)[C@H](O)CO [N-Methyl-N-octanoyl-D-glucamine, N-methyl-N-octanoyl-D-glucamine] | 0% | + | none | none | none |  |  |  |  | 
